From article PMC10470313, “Developing a peptide to disrupt cohesin head domain interactions” (iScience, 2023)
Where no end group is shown, it is not given here.

Legend:
[1] = system: Smc3-GFP (cohesin holocomplex) in yeast protein extract; test: Microscale thermophoresis (MST) binding in yeast cell extract; settings: 10 μM CIP3-TAT (Fig S3; method b75: 5 μM), extract of yAM-945 strain, MST binding mode, no binding constants
Procedure: We validated the in vitro binding of CIP3 to Smc3 by exploring the formation of the complex in a yeast cell extract in which Smc3 was fused to GFP. Protein extract from the yAM-945 strain containing Smc3-GFP was supplemented with 10 μM CIP3-TAT and analyzed by microscale thermophoresis (MST) in binding mode. In this assay, the migration of a fluorescent protein in a microscale temperature gradient is monitored. Changes in the physical-chemical properties of the protein, induced by interaction with another protein or a small molecule, will change the migration properties of the protein. While biochemical constants of the binding cannot be determined under these conditions, as the concentration of Smc3-GFP in the extract is undetermined.
Yeast strain yAM-945 cells containing Smc3-GFP were grown in SD-URA galactose to mid-log phase. Cells were collected by centrifugation and washed with water. The cell pellet was resuspended in 350 μl of MST Buffer (NanoTemper) supplemented with 0.05% Tween-20 (Sigma). Glass beads were added, and cells were lyzed by 4 cycles of 1 minute in a bullet blender (next advance). The protein extract was clarified by centrifugation at 1000 g for 5 minutes. […] The formation of the CIP3-TAT and cohesin complex was analyzed by Monolith NT.115 (NanoTemper) in the binding mode that detects the formation of complexes without calculating the binding constants.

[2] = system: cohesin (Smc3-V5) on chromatin, yKS-008 strain; test: Chromatin immunoprecipitation (ChIP) of cohesin (Smc3-V5); assay type: cell-based, yeast; settings: G2/M arrested; anti-V5 ChIP-qPCR; centromeres of chromosomes 3 and 4, rDNA locus chromosome 12, CARC1 chromosome 3
Procedure: To test the effect of CIP3 on the association of cohesin with chromatin, we performed a chromatin immunoprecipitation (ChIP) assay. yKS-008 strain (Smc3-V5) cells were grown to mid-log phase and arrested in the G1 phase of the cell cycle. Cells were untreated or supplemented with CIP3-TAT and then released into the cell cycle until they were rearrested at the G2/M phase. Cells were processed for ChIP with antibodies against V5 (Figure 4D). Cohesin residency was explored on loci on which cohesin enrichment: the centromeres of chromosome 3 and chromosome 4, the rDNA locus on chromosome 12 and the cohesin-associated region C1 (CARC1) on chromosome 3. […] However, it stabilizes non-cohesive chromosome-bound cohesin. […] Thus, we conclude that CIP3 inhibits ATP hydrolysis rather than blocks ATP binding and cohesin loading.
The cohesion GFP dot assay and ChIP are described in.[46]^,[63]^,[68] In brief, cohesion was studied by visualizing LacO arrays inserted at the LYS locus in a strain expressing LacI-GFP. Cell cultures were grown in a YEPD to OD600=0.5 and synchronized by nocodazole. Cells were fixed by incubating with 100 μl of 4% paraformaldehyde, 15min at room temperature and washed once (5,000rpm, 30sec, room temperature) with 1ml KOP4/sorbitol solution (0.1 M KOP4 pH=7.5 with 1.2 M sorbitol), resuspended in 100 μl of KOP4/sorbitol and stored at 4°C up to one month. […]

U2OS cells = test: Mitosis time in U2OS cells (live-cell imaging); assay type: cell-based, human; settings: 10 nM peptide, 20 h, images every 5 min
Procedure: CIP3 was derived from a highly conserved region of Smc1 (Figure 1D). Therefore, we sought to test its ability to affect cohesin activity in human cells. U2OS cells were diluted into a 96-well plate and grown for about 20 h. Added to this was 10 nM peptide and the cells were grown for another 20 h. Images of the cells were taken every 5 min (Figure 5A). We expected cohesion loss to result in a mitotic delay. We calculated mitosis time starting from the first image in which condensed mitotic chromosomes were visualized until their disappearance at mitosis exit. Strikingly, the average mitosis time in CIP3-TAT treated cells increased by about 10% (from 6 to 6.5 min), indicating a mitotic delay (Figure 5B).
Figure 5 CIP3 causes a mitotic delay in human cells U2OS cells were plated in a 96-well plate and grown for 20 h to allow adherence. […] Mitosis length was determined by counting the number of images in which mitotic chromosomes were visualized. […] (B) Quantitation of mitosis length in untreated and CIP3-TAT treated cells. At least 300 cells were counted for each condition. ∗∗∗p < 0.0001.
U2OS cells were maintained in Dulbecco's Modified Eagle Medium (DMEM) (Gibco) with 10% fetal bovine serum (FBS) (Corning), 2 mM l-glutamine (Gibco), 1% penicillin-streptomycin (Gibco), and 1 mM sodium pyruvate (Gibco), at 37°C, 5% CO2. […] The significance between conditions was determined by using Student's t-test.

Q: How did the “complex formation with Smc3-GFP/cohesin” value [1] turn out when KRFKDMEYLSGGEKTGGYGRKKRRQRRR [CIP3-TAT] was run?
A: Its value is “supported the formation of the Smc3/CIP3 complex”.

Q: What about the “cohesin residency on chromatin” value [2] of the same sequence?
A: Its value is “cohesin residency increased in cells treated with CIP3-TAT in all tested regions”.

Q: And the average mitosis time (U2OS cells; untreated: 6 min, at least 300 cells per condition)?
A: The average mitosis time was 6.5 min.

Q: And the “increase of average mitosis time” value (U2OS cells; vs untreated)?
A: Its value is “about 10%”.
